# Test: Isothermal compression of Langmuir monolayers of dendrons at the air/water interface
# Format: physicochemical
# Conditions: 25±0.5° C.
# Procedure: The evaluation of anchoring capability of the dendrons at interfacial film of microbubbles was evaluated by investigating the isothermal compression of Langmuir monolayers formed by these molecules at the air/water interface. Langmuir monolayers constitute a bidimensional experimental model of the interfacial film of the nanoemulsions. In the above-mentioned experiments, the surface pressure (π) versus molecular area (A) isotherms were recorded using a Langmuir minitrough (KSV NIMA, Finland) equipped with two movable barriers (initial area: 365×75 mm^2, compression speed: 10 cm^2 min^−1, which corresponded to a reduction of the total area of ˜3.6% min^−1). π was measured using the Wilhelmy plate (paper) method. The trough was maintained at 25±0.5° C. Solutions of oligo(ethylene oxide) dendrons (1 mmol L^−1) in chloroform were spread on the surface of water (320 mL). Subsequently, 15 min was allowed for chloroform to evaporate and the film to equilibrate before compression was initiated. All the experiments were performed at least three times. Since our Langmuir trough only allowed for a surface area compression of about 10, isotherms were recorded in three separate experiments.
compound,measurement,value
CCOP(=O)(Cc1cc(CP(=O)(OCC)OCC)cc(OCCNC(=O)c2cc(OCCOCCOCCOCCOC)c(OCCOCCOCCOCCOC)c(OCCOCCOCCOCCOC)c2)c1)OCC [DM],collapse pressure / surface pressure of the Langmuir monolayer,~10 mN m^−1
